Measurements as given in patent US20100099847A1 (Kyowa Hakko Bio Co., Ltd., priority 2006, published 2010).

Assays:
[1] = volume median diameter
Description: This is synonymous with volume median diameter, and it was measured using a laser diffraction and scattering particle diameter analyzer, the LMS-24 SK Laser Micron Sizer (Seishin Enterprise Co. Ltd.) and expressed as a cumulative 50% volume particle diameter.

[2] = width of approximately 300 crystals
Description: The crystals were observed and photographed using a VH-8000 digital microscope (Keyence Corporation). The width of approximately 300 crystals was measured and calculations performed.

Average particle diameter [1] [μm] | Average width [2] [μm] | SMILES
9 | – | N[C@@H](CCC(=O)N[C@@H](CS)C(=O)NCC(=O)O)C(=O)O [Commercial product A, glutathione]
– | 3 | N[C@@H](CCC(=O)N[C@@H](CS)C(=O)NCC(=O)O)C(=O)O [commercial product B, glutathione]
